Data taken from ChEMBL document CHEMBL5291721, “A preclinical secondary pharmacology resource illuminates target-adverse drug reaction associations of marketed drugs” (Nat Commun, 2023).

Legend:
Bile salt export pump = Bile salt export pump (Homo sapiens, UniProt O95342); assay type: functional
Acetylcholinesterase = Acetylcholinesterase (Homo sapiens, UniProt P22303); assay type: functional
[1] = target: T1, Alpha-2A adrenergic receptor (Homo sapiens, UniProt P08913)
T1 sequence (P08913 whole entry): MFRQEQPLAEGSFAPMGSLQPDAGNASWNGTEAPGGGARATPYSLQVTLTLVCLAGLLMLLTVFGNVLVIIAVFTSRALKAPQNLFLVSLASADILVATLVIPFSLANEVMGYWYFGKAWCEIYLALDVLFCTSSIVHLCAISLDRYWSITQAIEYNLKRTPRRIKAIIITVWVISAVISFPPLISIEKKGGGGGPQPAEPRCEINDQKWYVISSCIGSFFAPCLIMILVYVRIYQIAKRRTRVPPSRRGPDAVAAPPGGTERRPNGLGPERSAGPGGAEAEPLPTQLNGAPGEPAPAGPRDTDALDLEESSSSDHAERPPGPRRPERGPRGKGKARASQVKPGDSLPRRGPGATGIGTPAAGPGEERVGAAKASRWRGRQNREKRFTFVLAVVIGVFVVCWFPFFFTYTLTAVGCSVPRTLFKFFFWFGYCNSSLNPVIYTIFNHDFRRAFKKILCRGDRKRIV

[2] = target: T2, Muscarinic acetylcholine receptor M2 (Homo sapiens, UniProt P08172)
T2 sequence (P08172 whole entry): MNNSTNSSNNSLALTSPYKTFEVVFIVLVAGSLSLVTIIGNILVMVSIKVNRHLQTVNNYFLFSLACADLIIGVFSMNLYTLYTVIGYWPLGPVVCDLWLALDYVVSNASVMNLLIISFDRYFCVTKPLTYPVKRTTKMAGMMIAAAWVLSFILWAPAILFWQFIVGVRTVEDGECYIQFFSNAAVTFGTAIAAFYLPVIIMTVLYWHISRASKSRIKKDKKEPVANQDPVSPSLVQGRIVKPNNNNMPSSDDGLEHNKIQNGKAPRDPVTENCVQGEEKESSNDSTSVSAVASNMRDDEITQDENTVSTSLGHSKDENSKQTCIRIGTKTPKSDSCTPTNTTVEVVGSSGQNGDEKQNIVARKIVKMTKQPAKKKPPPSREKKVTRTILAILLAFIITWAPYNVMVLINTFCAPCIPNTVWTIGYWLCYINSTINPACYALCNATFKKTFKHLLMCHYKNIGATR

D(1A) dopamine receptor = D(1A) dopamine receptor (Homo sapiens, UniProt P21728)
D(3) dopamine receptor = D(3) dopamine receptor (Homo sapiens, UniProt P35462)
Prothrombin = Prothrombin (Homo sapiens, UniProt P00734); assay type: functional
Histamine H3 receptor = Histamine H3 receptor (Homo sapiens, UniProt Q9Y5N1)
[3] = target: T3, 5-hydroxytryptamine receptor 1A (Homo sapiens, UniProt P08908)
T3 sequence (P08908 whole entry): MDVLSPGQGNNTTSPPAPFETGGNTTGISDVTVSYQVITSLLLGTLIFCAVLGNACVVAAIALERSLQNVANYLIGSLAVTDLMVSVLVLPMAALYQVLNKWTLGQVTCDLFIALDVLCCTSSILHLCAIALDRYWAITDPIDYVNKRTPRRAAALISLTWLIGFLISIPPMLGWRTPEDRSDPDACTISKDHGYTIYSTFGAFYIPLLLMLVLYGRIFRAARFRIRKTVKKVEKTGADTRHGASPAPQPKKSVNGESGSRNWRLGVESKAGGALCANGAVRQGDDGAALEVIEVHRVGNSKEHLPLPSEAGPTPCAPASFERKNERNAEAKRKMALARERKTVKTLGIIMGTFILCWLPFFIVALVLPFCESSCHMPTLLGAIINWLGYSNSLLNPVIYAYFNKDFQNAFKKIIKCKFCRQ

[4] = target: Voltage-gated inwardly rectifying potassium channel KCNH2 (Homo sapiens, UniProt Q12809); assay type: functional; conditions: read-out: AC50
[5] = target: cGMP-inhibited 3',5'-cyclic phosphodiesterase 3A (Homo sapiens, UniProt Q14432); assay type: functional
[6] = target: 3',5'-cyclic-AMP phosphodiesterase 4A (Homo sapiens, UniProt P27815); assay type: functional
[7] = target: T4, Prostaglandin G/H synthase 1 (Homo sapiens, UniProt P23219); assay type: functional
[8] = target: T4, Prostaglandin G/H synthase 1; assay type: functional; remark: listed apart in the source
[9] = target: Sodium-dependent dopamine transporter (Homo sapiens, UniProt Q01959)
Thromboxane A2 receptor = target: T5, Thromboxane A2 receptor (Homo sapiens, UniProt P21731); assay type: functional, cell-based
T5 sequence (P21731 whole entry): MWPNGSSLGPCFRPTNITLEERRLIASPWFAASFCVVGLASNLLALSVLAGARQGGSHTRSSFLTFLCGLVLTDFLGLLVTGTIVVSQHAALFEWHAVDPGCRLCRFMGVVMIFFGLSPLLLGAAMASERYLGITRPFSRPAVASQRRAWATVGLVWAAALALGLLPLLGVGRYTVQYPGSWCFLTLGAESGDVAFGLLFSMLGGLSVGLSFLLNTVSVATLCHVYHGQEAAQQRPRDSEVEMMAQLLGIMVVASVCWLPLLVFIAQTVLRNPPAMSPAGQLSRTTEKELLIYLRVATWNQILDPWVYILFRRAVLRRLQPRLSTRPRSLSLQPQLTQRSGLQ
Further: assay procedure not described here.

Chain of Bile salt export pump (O95342 whole entry): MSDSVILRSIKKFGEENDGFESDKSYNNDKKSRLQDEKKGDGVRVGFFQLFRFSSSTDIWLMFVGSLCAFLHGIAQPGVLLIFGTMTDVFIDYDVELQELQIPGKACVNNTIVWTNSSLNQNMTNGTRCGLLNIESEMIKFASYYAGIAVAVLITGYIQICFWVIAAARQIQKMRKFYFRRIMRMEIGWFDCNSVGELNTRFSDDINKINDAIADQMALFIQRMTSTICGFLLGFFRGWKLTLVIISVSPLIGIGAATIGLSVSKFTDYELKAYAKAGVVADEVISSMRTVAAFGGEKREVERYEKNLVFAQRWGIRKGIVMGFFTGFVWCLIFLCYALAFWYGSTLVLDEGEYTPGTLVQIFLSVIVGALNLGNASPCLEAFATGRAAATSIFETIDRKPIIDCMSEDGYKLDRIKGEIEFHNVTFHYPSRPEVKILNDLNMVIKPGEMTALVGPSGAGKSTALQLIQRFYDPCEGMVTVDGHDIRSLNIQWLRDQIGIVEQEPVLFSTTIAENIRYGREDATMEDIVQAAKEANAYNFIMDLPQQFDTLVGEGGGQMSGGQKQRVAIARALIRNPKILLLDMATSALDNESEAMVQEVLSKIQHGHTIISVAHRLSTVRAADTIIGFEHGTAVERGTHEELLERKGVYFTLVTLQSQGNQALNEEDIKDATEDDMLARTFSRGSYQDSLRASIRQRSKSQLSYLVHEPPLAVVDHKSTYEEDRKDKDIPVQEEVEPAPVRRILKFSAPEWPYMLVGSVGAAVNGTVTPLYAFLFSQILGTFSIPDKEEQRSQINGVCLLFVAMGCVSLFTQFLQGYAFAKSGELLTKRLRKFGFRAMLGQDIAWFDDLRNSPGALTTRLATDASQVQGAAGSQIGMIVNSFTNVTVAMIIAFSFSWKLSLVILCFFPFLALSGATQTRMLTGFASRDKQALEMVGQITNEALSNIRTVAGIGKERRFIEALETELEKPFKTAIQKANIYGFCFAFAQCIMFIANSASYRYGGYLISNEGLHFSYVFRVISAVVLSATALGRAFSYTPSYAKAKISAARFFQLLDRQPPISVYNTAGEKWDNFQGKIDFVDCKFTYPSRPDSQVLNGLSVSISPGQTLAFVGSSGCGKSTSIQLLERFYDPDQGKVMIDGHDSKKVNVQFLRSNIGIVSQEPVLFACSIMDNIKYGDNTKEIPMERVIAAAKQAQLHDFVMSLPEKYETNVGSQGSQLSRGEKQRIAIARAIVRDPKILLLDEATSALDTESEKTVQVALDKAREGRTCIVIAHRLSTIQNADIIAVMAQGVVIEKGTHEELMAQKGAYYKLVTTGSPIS
Chain of Histamine H3 receptor (Q9Y5N1 whole entry): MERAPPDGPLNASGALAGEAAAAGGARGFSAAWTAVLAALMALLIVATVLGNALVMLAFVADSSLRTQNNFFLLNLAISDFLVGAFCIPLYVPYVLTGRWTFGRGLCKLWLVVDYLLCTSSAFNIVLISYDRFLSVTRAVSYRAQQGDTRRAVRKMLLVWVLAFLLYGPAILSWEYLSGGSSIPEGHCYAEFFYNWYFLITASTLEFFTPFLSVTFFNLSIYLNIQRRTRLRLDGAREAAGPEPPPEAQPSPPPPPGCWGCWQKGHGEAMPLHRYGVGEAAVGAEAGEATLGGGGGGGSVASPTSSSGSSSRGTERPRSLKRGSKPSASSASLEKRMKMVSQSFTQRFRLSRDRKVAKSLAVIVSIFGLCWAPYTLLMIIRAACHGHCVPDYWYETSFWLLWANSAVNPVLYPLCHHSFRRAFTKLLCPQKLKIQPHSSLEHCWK
Chain of D(3) dopamine receptor (P35462 whole entry): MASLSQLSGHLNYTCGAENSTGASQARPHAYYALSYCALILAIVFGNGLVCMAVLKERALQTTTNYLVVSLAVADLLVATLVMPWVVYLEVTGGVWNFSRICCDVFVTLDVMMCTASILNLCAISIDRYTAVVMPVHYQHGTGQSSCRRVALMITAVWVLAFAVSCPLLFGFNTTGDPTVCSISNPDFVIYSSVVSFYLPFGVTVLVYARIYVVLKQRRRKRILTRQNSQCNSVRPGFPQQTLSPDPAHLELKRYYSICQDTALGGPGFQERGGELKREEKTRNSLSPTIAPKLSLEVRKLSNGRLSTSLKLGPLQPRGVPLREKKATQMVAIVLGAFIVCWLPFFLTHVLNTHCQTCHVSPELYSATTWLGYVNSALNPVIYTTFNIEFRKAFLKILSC
Chain of Acetylcholinesterase (P22303 whole entry): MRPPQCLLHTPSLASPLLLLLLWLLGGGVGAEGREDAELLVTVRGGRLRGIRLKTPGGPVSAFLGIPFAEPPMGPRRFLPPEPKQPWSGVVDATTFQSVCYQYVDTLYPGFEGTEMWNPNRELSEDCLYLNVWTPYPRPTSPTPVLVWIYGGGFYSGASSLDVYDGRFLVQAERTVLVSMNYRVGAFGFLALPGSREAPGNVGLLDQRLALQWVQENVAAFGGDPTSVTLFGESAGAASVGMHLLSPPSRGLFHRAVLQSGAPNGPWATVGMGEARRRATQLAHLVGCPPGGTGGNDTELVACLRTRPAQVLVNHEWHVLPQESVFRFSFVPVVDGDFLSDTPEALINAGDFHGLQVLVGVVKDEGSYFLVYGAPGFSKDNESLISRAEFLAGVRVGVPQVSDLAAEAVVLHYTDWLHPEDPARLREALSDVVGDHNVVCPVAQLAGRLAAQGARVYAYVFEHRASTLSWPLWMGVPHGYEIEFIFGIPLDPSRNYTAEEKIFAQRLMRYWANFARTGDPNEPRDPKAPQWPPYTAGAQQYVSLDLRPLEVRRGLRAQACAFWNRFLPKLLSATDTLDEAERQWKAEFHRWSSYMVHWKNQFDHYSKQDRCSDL
Chain of D(1A) dopamine receptor (P21728 whole entry): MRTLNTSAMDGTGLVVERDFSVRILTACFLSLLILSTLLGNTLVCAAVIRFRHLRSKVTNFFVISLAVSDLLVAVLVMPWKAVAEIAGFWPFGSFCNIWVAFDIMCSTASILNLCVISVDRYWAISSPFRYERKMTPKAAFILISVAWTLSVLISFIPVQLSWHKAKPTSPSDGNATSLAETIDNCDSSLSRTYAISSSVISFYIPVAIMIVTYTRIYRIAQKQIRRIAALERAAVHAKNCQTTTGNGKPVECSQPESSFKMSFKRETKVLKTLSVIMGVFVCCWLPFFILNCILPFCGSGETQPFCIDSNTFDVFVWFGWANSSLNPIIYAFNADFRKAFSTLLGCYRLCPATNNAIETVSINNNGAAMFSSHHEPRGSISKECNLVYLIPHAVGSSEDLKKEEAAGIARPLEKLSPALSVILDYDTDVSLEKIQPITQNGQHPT
T4 sequence (P23219 whole entry): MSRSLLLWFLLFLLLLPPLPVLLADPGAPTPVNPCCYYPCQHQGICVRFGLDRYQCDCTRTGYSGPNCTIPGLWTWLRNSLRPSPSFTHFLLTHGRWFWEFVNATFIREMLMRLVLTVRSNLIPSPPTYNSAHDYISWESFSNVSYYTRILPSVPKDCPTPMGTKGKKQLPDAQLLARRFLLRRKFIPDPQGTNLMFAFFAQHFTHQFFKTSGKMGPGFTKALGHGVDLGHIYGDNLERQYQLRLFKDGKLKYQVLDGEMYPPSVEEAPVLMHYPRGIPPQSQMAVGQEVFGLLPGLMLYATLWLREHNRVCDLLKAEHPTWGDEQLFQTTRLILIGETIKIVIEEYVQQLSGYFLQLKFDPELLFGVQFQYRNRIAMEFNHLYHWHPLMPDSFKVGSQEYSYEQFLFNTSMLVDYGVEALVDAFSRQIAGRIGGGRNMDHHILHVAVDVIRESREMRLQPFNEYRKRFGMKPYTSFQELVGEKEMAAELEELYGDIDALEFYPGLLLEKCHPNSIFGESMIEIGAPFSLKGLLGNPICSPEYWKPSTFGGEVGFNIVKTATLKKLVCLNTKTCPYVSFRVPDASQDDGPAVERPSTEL
Chain of Voltage-gated inwardly rectifying potassium channel KCNH2 (Q12809 whole entry): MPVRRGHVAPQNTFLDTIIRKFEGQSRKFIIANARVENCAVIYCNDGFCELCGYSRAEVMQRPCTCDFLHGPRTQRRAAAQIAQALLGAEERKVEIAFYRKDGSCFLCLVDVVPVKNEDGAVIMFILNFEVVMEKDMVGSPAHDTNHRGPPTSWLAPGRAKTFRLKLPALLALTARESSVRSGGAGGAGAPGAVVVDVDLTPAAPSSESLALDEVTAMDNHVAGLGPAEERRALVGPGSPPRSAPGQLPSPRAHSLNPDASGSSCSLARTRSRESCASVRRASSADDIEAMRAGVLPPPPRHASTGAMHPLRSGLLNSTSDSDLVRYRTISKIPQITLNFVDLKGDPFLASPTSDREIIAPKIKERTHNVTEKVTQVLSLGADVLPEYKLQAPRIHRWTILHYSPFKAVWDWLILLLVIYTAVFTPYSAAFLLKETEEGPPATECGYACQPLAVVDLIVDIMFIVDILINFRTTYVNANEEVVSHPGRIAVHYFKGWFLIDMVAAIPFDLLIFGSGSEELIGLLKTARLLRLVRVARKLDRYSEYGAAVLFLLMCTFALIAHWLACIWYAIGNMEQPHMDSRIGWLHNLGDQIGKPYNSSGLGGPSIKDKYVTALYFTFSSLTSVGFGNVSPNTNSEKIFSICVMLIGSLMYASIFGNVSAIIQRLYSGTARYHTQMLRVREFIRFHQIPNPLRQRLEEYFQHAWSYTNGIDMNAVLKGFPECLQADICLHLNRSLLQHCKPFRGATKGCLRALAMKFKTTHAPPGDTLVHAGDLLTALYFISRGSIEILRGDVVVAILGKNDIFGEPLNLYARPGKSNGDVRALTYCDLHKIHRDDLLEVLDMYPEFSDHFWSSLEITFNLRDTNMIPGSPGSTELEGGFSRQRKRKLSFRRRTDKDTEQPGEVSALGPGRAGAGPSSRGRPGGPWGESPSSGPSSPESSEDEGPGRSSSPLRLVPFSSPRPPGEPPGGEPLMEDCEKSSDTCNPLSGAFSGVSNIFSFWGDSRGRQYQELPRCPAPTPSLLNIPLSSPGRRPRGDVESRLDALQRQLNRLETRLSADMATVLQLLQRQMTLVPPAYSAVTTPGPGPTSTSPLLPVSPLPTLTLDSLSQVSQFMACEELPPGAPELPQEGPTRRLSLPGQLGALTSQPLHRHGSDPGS

Compound | AC50 (Bile salt export pump) [µM] | AC50 (Acetylcholinesterase) [µM] | AC50 [1] [µM] | AC50 [2] [µM] | AC50 (D(1A) dopamine receptor) [µM] | AC50 (D(3) dopamine receptor) [µM] | AC50 (Prothrombin) [µM] | AC50 (Histamine H3 receptor) [µM] | AC50 [3] [µM] | AC50 [4] [µM] | AC50 [5] [µM] | AC50 [6] [µM] | AC50 [7] [µM] | AC50 [8] [µM] | AC50 [9] [µM] | AC50 (Thromboxane A2 receptor) [µM]
NC(=O)NS(=O)(=O)c1ccc(N)cc1 [SULFACARBAMIDE] | > 300 | > 30 | > 30 | > 30 | > 30 | > 30 | > 30 | > 30 | > 30 | > 30 | > 30 | > 30 | > 30 | > 30 | > 30 | > 30
CCCCCCCCNC(C)C(O)c1ccc(SC(C)C)cc1 (stereo not drawn) [SULOCTIDIL] | 64 | > 30 | 6.75 | 3.41 | 11.3 | 0.671 | > 30 | 27.4 | 0.216 | 0.43 | > 30 | 20.9 | > 30 | 15.5 | 2.21 | > 10
CC1(C)O[C@@H]2[C@@H](CO[C@@]3(COS(N)(=O)=O)OC(C)(C)O[C@@H]23)O1 [TOPIRAMATE] | > 300 | > 30 | > 30 | > 30 | > 30 | > 30 | > 30 | > 30 | > 30 | > 30 | > 30 | > 30 | > 30 | > 30 | > 30 | > 30
